Results as given in patent US11541065B2, “Compositions and methods for treating brain injury” (UNM RAINFOREST INNOVATIONS, priority 2018, dated 2023).

Experiments:
[1] = tested on: COX2; test: COX2 protein level in rat neuronal cultures (immunoblot); type: cell-based; conditions: for effect on homocysteine-induced increase in COX2 protein level: rat neurons, L-homocysteine 50 μM four hours, with MK801 10 μM, NVP-AAM077 30 nM, Ro 25-6981 1 μM, PD98059 15 μM, SB203580 5 μM or Bengamide B 500 nM
Protocol: (§1) Equal protein from total cell lysates obtained from rat and mice neuronal cultures were resolved in 7.5% SDS-PAGE, and subjected to immunoblotting procedure as described earlier (Poddar and Paul, 2009, J Neurochem 110:1095-1106). Blots were analyzed with antibodies as described in each experiment. All primary antibodies (anti-COX2, anti-B-tubulin) and secondary-horse radish peroxidase conjugated antibody concentrations were used according to recommendations provided by the manufacturer. Signals from immune complexes in the blots were developed using West Pico supersignal chemiluminescence reagents and then captured on X-ray films. Densitometric analysis of the images was performed using the Image J software.
Rat and mice neuronal cultures were washed with PBS (pH 7.4), containing sodium pyrophosphate and sodium vanadate as phosphatase inhibitors, and harvested in SDS sample buffer (Laemmli, 1970, Nature 227:680-685). Equal protein from total cell lysates, estimated using BCA kit, was resolved by SDS-PAGE (7.5%) followed by western blotting on PVDF membranes. Immunoblot analysis was performed by first blocking with 5% non-fat dry milk for 1 h at room temperature followed by incubation with either COX2 immunoblot analysis (Poddar and Paul, 2009, J Neurochem 110:1095-1106) as described in each experiment. All primary antibodies and horseradish peroxidase conjugated secondary antibodies were used according to manufacturer's recommendations. Signals from immune complexes in the blots were developed using West Pico supersignal chemiluminescence reagents and then captured on X-ray films. Densitometric analysis of the images was performed using the NIH Image J software.

[2] = tested on: ERK MAPK; test: ERK MAPK phosphorylation in rat cortical neuron cultures (immunoblot); type: cell-based
Source text: Primary cortical neuronal cultures were established from embryos obtained from pregnant Sprague Dawley female rats (16-17 day gestation) as previously described (Podder and Paul, 2009, J Neurochem 110:1095-1106; Poddar and Paul, 2013, J Neurochem 124: 558-570). Primary cortical neuronal cultures were also developed from pregnant wildtype or GluN2A-knockout mice (15-16 day gestation) using similar protocols. The cells were maintained in culture for 12-14 days prior to treatment with homocysteine. L-homocysteine (200 mM stock) was prepared by alkali hydrolysis of L-homocysteine thiolactone hydrochloride followed by neutralization with 2N HCL and maintained in 0.02 mM N-Tris(hydroxymethyl)methyl-2-aminoethanesulfonicd acid (TES) buffer pH 7.4 (Poddar et al., 2001, Circulation 103:2717-2723). For receptor stimulation neurons were treated with freshly prepared 50 μM of L-homocysteine in Hank's balanced salt solution (Podder and Paul, 2009, J Neurochem 110:1095-1106; Poddar and Paul, 2013, J Neurochem 124: 558-570) containing 50 μM of glycine (Lipton et al., 1997, Proc Natl Acad Sci USA 94:5923-5928). In a subset of culture plates, pharmacological inhibitors (NVP-AAM007) were added […] prior to homocysteine addition and maintained during homocysteine treatment. Cells were processed for immunoblotting or Hoechst DNA staining.
as §1, with “(Podder” for “(Poddar”, “(anti-pERK, anti-ERK)” for “(anti-COX2, anti-B-tubulin)”
Embryos obtained from pregnant Sprague Dawley rats (16-17-day gestation) or wild type (WT) and GluN2A KO mice (15-16-day gestation) were used to establish primary cortical neuronal cultures as previously described (Poddar and Paul, 2009, J Neurochem 110:1095-1106; Poddar and Paul, 2013, J Neurochem 124:558-570; Poddar et al., 2017, J Neurochem 142:560-573). Neurons were grown on either (a) 35-mm culture dishes (MatTek Corp., Ashland, Mass.) coated overnight with poly-D-lysine (50 μg/ml) and laminin (10 μg/ml) for Ca^2+ imaging studies, (b) poly-D-lysine-coated 60 mm dishes (Corning BIOCOAT, Corning Inc., Corning, N.Y.) for biochemical studies, or (c) poly-D-lysine-coated 4-well culture slides (Corning BIOCOAT, Corning Inc., Corning, N.Y.) for cell death assay. Neurons were maintained in culture for 12-13 days before experiment. The cells were treated with freshly prepared L-homocysteine (50 μM) in Hank's balanced salt solution containing 50 μM of glycine (Lipton et al., 1997, Proceedings of the National Academy of Sciences of the United States of America 94:5923-5928; Poddar and Paul, 2009, J Neurochem 110:1095-1106; Poddar and Paul, 2013, J Neurochem 124:558-570; Poddar et al., 2017, J Neurochem 142:560-573) for the specified time periods. In a parallel series of experiments, cells were treated with glutamate (50 μM) for the specified time periods. Cells were then processed for live cell imaging, immunoblotting or cell death assay. In some experiments EGTA, DL-AP5, NVP-AAM077, Ro 25-6981 or PD98059 was added 15 minutes prior to L-homocysteine or glutamate treatment.
Rat and mice neuron cultures were harvested in SDS sample buffer (Laemmli, 1970, Nature 227:680-685). […]

[3] = rat cortical neurons, L-homocysteine 50 μM four hours, in presence of NVP-AAM077 (30 nM) or Ro 256981 (1 μM)

Row | Structure (SMILES) | COX2 protein levels ([1]; cortical neurons, L-homocysteine 50 μM, time course, alone) | ERK MAPK phosphorylation ([2]; rat cortical neurons, L-homocysteine 50 μM, four hours, alone) | effect on homocysteine-induced increase in COX2 protein level [1] | effect on homocysteine-induced ERK MAPK phosphorylation [2, 3] | effect on homocysteine-induced ERK MAPK phosphorylation ([2]; rat neurons, L-homocysteine 50 μM for 30 minutes or 60 minutes, with DL-AP5 200 μM or NVP-AAM077 30 nM) | effect on glutamate-induced transient increase in ERK MAPK phosphorylation ([2]; rat neurons, glutamate 50 μM five min, with DL-AP5 200 μM or NVP-AAM077 30 nM)
1 | N[C@@H](CCS)C(=O)O [L-homocysteine] | progressive increase in COX2 protein levels | significant increase in ERK MAPK phosphorylation | – | – | – | –
2 | C[C@H](NC(c1cccc2[nH]c(=O)c(=O)[nH]c12)P(=O)(O)O)c1ccc(Br)cc1 (stereo partly drawn) [NVP-AAM077, ({[(1S)-1-(4-bromophenyl)ethyl]amino}-(2,3-dioxo-1,4-dihydroquinoxalin-5-yl)methyl)phosphonic acid] | – | – | blocks homocysteine-induced increase in COX2 protein expression | blocks homocysteine-induced ERK MAPK phosphorylation | attenuates homocysteine-induced ERK MAPK phosphorylation | fails to ameliorate
3 | C[C@@H](CN1CCC(Cc2ccccc2)CC1)[C@@H](O)c1ccc(O)cc1 [Ro 25-6981] | – | – | fails to ameliorate homocysteine-induced increase in COX2 protein level | has no effect | – | –
